Assay results from PMC4000071 (Journal of Toxicologic Pathology, 2014).
Like-named read-outs stand apart in the source and are kept apart here.

Columns and labels:
dogs = settings: cited from earlier work
phospholipidosis (PLD) = assay: in vitro PLD screen; type: cell-based; settings: read-out: EC50 (phospholipogenic, in vitro)
rats = settings: cited from earlier work

Question: With `CCCCc1oc2ccccc2c1C(=O)c1cc(I)c(OCCN(CC)CC)c(I)c1` [amiodarone] as the molecule, how does the “corneal microdeposits (incidence)” value (dogs; after 6 weeks) read?
Answer: Its value is 1 of 6.

Question: What about the “alteration in the retina or optic nerve” value (dogs; after 11 weeks of dosing) of the same molecule?
Answer: Its value is “did not cause any alteration in the retina or optic nerve”.

Question: For `CCN(CC)CCCC(C)Nc1ccnc2cc(Cl)ccc12` (stereo not drawn) [chloroquine], which EC50 (phospholipidosis (PLD)) is on record?
Answer: The EC50 was less than 20 µM.

Question: With `CN(C)CCCC1(c2ccc(F)cc2)OCc2cc(C#N)ccc21` (stereo not drawn) [citalopram] as the molecule, how does the PLD (dogs) read?
Answer: The PLD was “did not cause PLD”.

Question: What about the “PLD in nervous tissues” value (rats) of the same molecule?
Answer: Its value is “caused PLD in 1 sympathetic ganglion, none or very weak PLD in retinal and trigeminal ganglia, and hypothalamic neurosecretory perikarya”.

Question: For `CNCCC(Oc1ccc(C(F)(F)F)cc1)c1ccccc1` (stereo not drawn) [fluoxetine], which “neuronal degeneration or neurological findings” value (dogs; after 1 year of dosing) is on record?
Answer: The value was “no neuronal degeneration or neurological findings were observed”.

Question: What about the “PLD in nervous tissues” value (rats) of the same molecule?
Answer: Its value is “caused PLD in retinas”.

Question: And the “PLD-like vacuolation in nerve cells” value (rats)?
Answer: Its value is “PLD-like vacuolation in nerve cells in the thalamus, cerebellum, spinal cord and ganglion”.

Question: With `CN(C)CCCN1c2ccccc2CCc2ccccc21` [imipramine] as the molecule, how does the “PLD in nervous tissues” value (rats) read?
Answer: Its value is “caused PLD in retina and DRG”.

Question: With `C1CCC(C(CC2CCCCN2)C2CCCCC2)CC1` (stereo not drawn) [perhexiline] as the molecule, how does the EC50 (phospholipidosis (PLD)) read?
Answer: Its EC50 is less than 20 µM.

Question: For `CC[C@@H]([C@H](C)O)n1ncn(-c2ccc(N3CCN(c4ccc(OC[C@@H]5CO[C@@](Cn6cncn6)(c6ccc(F)cc6F)C5)cc4)CC3)cc2)c1=O` [posaconazole], which PLD (dogs; chronic administration) is on record?
Answer: The PLD was “caused PLD in DRG and medulla oblongata neurons in the brain”.

Question: And the “neuronal degeneration or necrosis” value (dogs; chronic administration)?
Answer: The value was “no evidence of neuronal degeneration or necrosis”.
